This is an account of results in the NIST ThermoML archive (doi:10.1016/j.jct.2009.06.014).

The series is described as follows: xn = mol fraction of the nth substance listed. Particulars: 101 kPa, Liquid, Vibrating tube method, x1 = 1.

Numbers after ± are expanded uncertainties.

In the case of `O` [water] + C1CCOC1, the mass density (usually the mass of a sample divided by its volume) runs as follows: (323.15 K) 988.02 ± 0.2 kg/m3; (328.15 K) 985.68 ± 0.21 kg/m3; (333.15 K) 983.17 ± 0.21 kg/m3.
